This note sets out measurements from PubChem BioAssay (NCI).

Structures are written as SMILES.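 Each compound was tested at five concentrations against cells in 96-well plates for 48 hours. Abbreviation: GI50, concentration required for 50% inhibition of growth. At the TGI there is no net growth.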

Among the test systems are CAKI-1 renal; K-562 leukemia; LOX IMVI melanoma; NCI-H226 lung; NCI-H23 lung; NCI-H522 lung; OVCAR-3 ovarian; RXF 393 renal; SK-MEL-28 melanoma; SN12C renal; TK-10 renal; UACC-257 melanoma; UO-31 renal.
What all share (test): NCI-60 cell line screen, 48 h

As for `COc1cc(OC)cc(-c2cc(=O)c3cc4c(cc3[nH]2)OCO4)c1`, the TGI with CAKI-1 renal was over 100 µM; in the test with K-562 leukemia it was over 50.2 µM; with LOX IMVI melanoma, over 51.1 µM; with NCI-H226 lung, 1.06 µM; in the test with NCI-H23 lung it was 9.09 µM; in the test on NCI-H522 lung, 0.593 µM. Also, the TGI with OVCAR-3 ovarian was 5.82 µM; in the test on RXF 393 renal it was 0.518 µM; in the test with SK-MEL-28 melanoma it was over 71.7 µM; with SN12C renal, 30 µM; with TK-10 renal, 55 µM; with UACC-257 melanoma it was over 100 µM. This compound showed a TGI in the test on UO-31 renal of over 88.9 µM. Also, in the test with RXF 393 renal, the GI50 is 0.219 µM.

For the compound `COc1cccc(C2c3cc4c(cc3OC(NNS(=O)(=O)c3ccc(C)cc3)C2C)OCO4)c1OC` (configuration not stated), the TGI was 8.56 µM in the test on CAKI-1 renal; 6.79 µM with K-562 leukemia; 5.15 µM in the test with LOX IMVI melanoma; 13.1 µM in the test with NCI-H226 lung; over 100 µM with NCI-H23 lung; 8.61 µM in the test with NCI-H522 lung. Also, the TGI is 4.55 µM in the test on OVCAR-3 ovarian; 21.6 µM with RXF 393 renal; over 100 µM with SK-MEL-28 melanoma; 35.3 µM in the test with SN12C renal; 49.8 µM in the test on TK-10 renal; over 100 µM in the test on UACC-257 melanoma. Also, the TGI in the test on UO-31 renal was 52.8 µM.

In the case of `CC(=O)c1ccc2c(c1)CC1(C2)Cc2cc3c(c(C(=O)O)c2C1)CCC3` (configuration not stated), the TGI with CAKI-1 renal, with K-562 leukemia, in the test with LOX IMVI melanoma, in the test on NCI-H226 lung, in the test with NCI-H23 lung and in the test with NCI-H522 lung was over 100 µM in each case. For the same compound, the TGI with OVCAR-3 ovarian, in the test with RXF 393 renal, with SK-MEL-28 melanoma, with SN12C renal, in the test on TK-10 renal and with UACC-257 melanoma was over 100 µM each time. In addition, in the test on UO-31 renal, the TGI is over 100 µM.

Take `COc1cc2c(c(OC)c1OC)-c1ccc(SC)c(=O)cc1[C@@H](O)CC2`: the TGI was over 100 µM with CAKI-1 renal; over 100 µM in the test with K-562 leukemia; over 100 µM with LOX IMVI melanoma; 0.0169 µM in the test with NCI-H226 lung; over 100 µM in the test on RXF 393 renal; over 100 µM in the test on SK-MEL-28 melanoma. Besides, the TGI in the test with SN12C renal, with TK-10 renal, in the test on UACC-257 melanoma and with UO-31 renal was over 100 µM in each case. Further, the GI50 in the test with NCI-H522 lung is 0.0116 µM; with OVCAR-3 ovarian, 0.000322 µM; in the test with RXF 393 renal it was over 100 µM; in the test on SK-MEL-28 melanoma, over 100 µM; in the test on TK-10 renal it was over 100 µM.

With `CN(C)c1c(C2OC(CO)C(O)C2O)c(=O)c1=O` (configuration not stated), the TGI in the test with CAKI-1 renal, in the test with K-562 leukemia, in the test with LOX IMVI melanoma, in the test with NCI-H226 lung, in the test with NCI-H23 lung and in the test with NCI-H522 lung was over 100 µM throughout. Moreover, the TGI in the test with OVCAR-3 ovarian, in the test on RXF 393 renal, in the test on SK-MEL-28 melanoma, with SN12C renal, with TK-10 renal and with UACC-257 melanoma was over 100 µM in each case. Moreover, the TGI in the test with UO-31 renal was over 100 µM.

`OC(CN(CCCl)CCCl)C(O)C(O)C(O)CN(CCCl)CCCl` (configuration not stated): the TGI with CAKI-1 renal, in the test on K-562 leukemia, in the test with LOX IMVI melanoma, in the test with NCI-H226 lung, with NCI-H23 lung and with NCI-H522 lung was over 100 µM throughout. Moreover, the TGI in the test with OVCAR-3 ovarian, in the test with RXF 393 renal, in the test with SK-MEL-28 melanoma, in the test with SN12C renal, in the test on TK-10 renal and in the test on UACC-257 melanoma was over 100 µM each time. Besides, the TGI in the test with UO-31 renal is over 100 µM.

With `[B-][P+](CC[P+]1([B-])[C@@H](C)[C@@H](O)[C@H](O)[C@@H]1C)(c1ccccc1)c1ccccc1OC` (some centres not stated), the TGI is 30.4 µM in the test on CAKI-1 renal; 70.8 µM in the test on K-562 leukemia; 8.51 µM in the test on LOX IMVI melanoma; 31.8 µM with NCI-H226 lung; 31.3 µM in the test with NCI-H23 lung; 26.2 µM in the test with NCI-H522 lung. The TGI was determined as 31 µM with OVCAR-3 ovarian; 31.2 µM in the test on RXF 393 renal; 32.7 µM with SK-MEL-28 melanoma; 26.2 µM in the test with SN12C renal; 32.5 µM with TK-10 renal; 20.3 µM with UACC-257 melanoma. Also, in the test with UO-31 renal, the TGI came out at 21.7 µM.

With `NC1CCC(N(CC(=O)O)CC(=O)O)C(N(CC(=O)O)CC(=O)O)C1` (configuration not stated), the TGI in the test on CAKI-1 renal, in the test with K-562 leukemia, in the test on LOX IMVI melanoma, in the test with NCI-H226 lung, in the test on NCI-H23 lung and with NCI-H522 lung was over 100 µM in each case. For the same compound, the TGI with OVCAR-3 ovarian, with RXF 393 renal, in the test on SK-MEL-28 melanoma, in the test with SN12C renal, with TK-10 renal and in the test on UO-31 renal was over 100 µM each time.

In the case of `CC1C2C=C(O)C(=O)C(C2=O)C1c1ccccc1` (configuration not stated), the TGI in the test on CAKI-1 renal, in the test on K-562 leukemia, in the test with LOX IMVI melanoma, with NCI-H226 lung, with NCI-H23 lung and in the test with NCI-H522 lung was over 100 µM throughout. In addition, the TGI with OVCAR-3 ovarian, in the test with RXF 393 renal, in the test with SK-MEL-28 melanoma, with TK-10 renal, in the test with UACC-257 melanoma and with UO-31 renal was over 100 µM throughout.

For the compound `CCOC(=O)c1nc2cc(C(F)(F)F)ccc2nc1Nc1ccc(C(=O)OC)s1`, the TGI with CAKI-1 renal is over 100 µM; in the test with K-562 leukemia, over 100 µM; in the test on LOX IMVI melanoma it was over 100 µM; in the test with NCI-H226 lung, 87.3 µM; with NCI-H23 lung, over 100 µM; in the test on NCI-H522 lung it was 90.3 µM. For the same compound, the TGI with OVCAR-3 ovarian is 48.7 µM; with RXF 393 renal, 50.8 µM; with SK-MEL-28 melanoma it was over 100 µM; in the test on TK-10 renal it was over 100 µM; in the test on UACC-257 melanoma, over 100 µM; in the test on UO-31 renal, over 100 µM.

Regarding `CCc1ccc(COC(=O)C2=C(C)NC(C)=C(C(=O)OCc3ccc(CC)cn3)C2C2=COCCO2)nc1`, the TGI turned out to be 88.5 µM in the test with CAKI-1 renal; 53.7 µM in the test with K-562 leukemia; 29.1 µM with LOX IMVI melanoma; 40 µM with NCI-H226 lung; 51 µM in the test with NCI-H23 lung; 40.7 µM in the test with NCI-H522 lung. Besides, the TGI was 54.7 µM in the test with OVCAR-3 ovarian; 37.3 µM in the test on RXF 393 renal; 35 µM in the test on SK-MEL-28 melanoma; over 100 µM in the test on TK-10 renal; 41.5 µM in the test on UACC-257 melanoma; 60.4 µM with UO-31 renal.
